Results reported in article PMC5776727 (Bioorganic & medicinal chemistry letters, 2015).

Target: CXCR4 (Homo sapiens, UniProt P61073)
Test: inhibition of CXCL12
Format: cell-based
Conditions: read-out: SDF-1 Ca2+ Flux CEM-1 IC50; SDF-1 induced calcium release; duplicate

Chain of CXCR4 (P61073 whole entry): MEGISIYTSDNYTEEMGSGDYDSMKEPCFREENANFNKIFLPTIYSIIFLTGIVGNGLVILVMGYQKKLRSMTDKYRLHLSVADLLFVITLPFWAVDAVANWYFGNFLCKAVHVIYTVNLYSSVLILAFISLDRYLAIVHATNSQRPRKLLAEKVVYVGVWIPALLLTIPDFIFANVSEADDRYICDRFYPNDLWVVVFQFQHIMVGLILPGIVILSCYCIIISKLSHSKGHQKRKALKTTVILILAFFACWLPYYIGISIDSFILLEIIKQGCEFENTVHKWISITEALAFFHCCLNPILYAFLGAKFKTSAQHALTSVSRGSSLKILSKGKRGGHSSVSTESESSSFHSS

- IC50: 21 µM
SMILES: NCCCCN(C[C@H]1CN(C(=O)Nc2ccccc2)CCN1)[C@H]1CCCc2cccnc21 [Compound 57a]
